Laboratory results reported in patent publication US20160361251A1, “NOVEL PROCESS FOR PRODUCING TRANSMUCOSAL PHARMACEUTICAL FORMULATIONS AND FORMULATIONS THUS OBTAINED” (Clemann Group, priority 2013, published 2016).

B1: rBetv1: recombinant allergen rBetv1, a characteristic allergen of trees of the order of fagales and in particular birch (protein, UniProt P15494 2-160, looked up)
Major pollen allergen Bet v …: GVFNYETETTSVIPAARLFKAFILDGDNLFPKVAPQAISSVENIEGNGGPGTIKKISFPEGFPFKYVKDRVDEVDHTNFKYNYSVIEGGPIGDTLEKISNEIKIVATPDGGSILKISNKYHTKGDHEVKAEQVKASKEMGETLLRAVESYLLAHSDAYN

Test: Dissolution of active ingredient in ternary mixture stearate 1500/TPGS/water
Type: physicochemical
Method: For this purpose, 10 g of ternary mixture are prepared from 4.50 g of stearate 1500, 500 mg of TPGS and 5 g of water at 50° C. This mixture is maintained at 50° C. with stirring for 5 minutes.
In an Erlenmeyer provided with magnetic stirring, 1.80 g of stearate 1500 and 200 mg of TPGS are mixed at 50° C. with stirring for 3 minutes in order to form a homogenous and intimate mixture of both polymers. The mixture is then slowly cooled to 40° C.
1 ml of an aqueous solution of rBetv1 is then prepared at a concentration of 3 mg/ml.
1 ml of this solution is then introduced into the previous mixture of molten polymer maintained at 40° C.

Molecule	dissolution in ternary mixture (stearate 1500/TPGS/water 4.50 g/500 mg/5 g at 50° C., 4.54 g powder added)	dissolution in molten polymer mixture (1 ml of 3 mg/ml aqueous solution into 1.80 g stearate 1500 + 200 mg TPGS at 40° C.)
CNCC(O)c1ccc(O)c(O)c1.O=C(O)C(O)C(O)C(=O)O (centres unmarked) [adrenaline bitartrate]	total and rapid	–
B1	–	complete and rapid
